These results are taken from US20220089578A1, “COMPOUNDS AS GLP-1R AGONISTS” (Terns Pharmaceuticals, Inc., priority 2020, published 2022).

The target of the first assay is human GLP-1R (Homo sapiens, UniProt P43220). Description: GLP-1R Cell Assay 1: cAMP Hunter CHO-K1 GLP1R Gs cell line, HitHunter cAMP assay. The conditions noted are these: Table 2; cAMP Hunter CHO-K1 GLP1R Gs cells; percent activity normalized to Exendin-4. The assay is classed as cell-based. The protocol: GLP-1R mediated agonist activity was determined using the cAMP Hunter CHO-K1 GLP1R Gs cell line (DiscoverX, cat# 95-0062C2), a stable CHO-K1 derived cell lines overexpressing naturally Gs coupled wild-type human GLP-1R (accession number: NM_002062.3). GLP-1R agonism in this cell line was detected by measuring cellular cAMP levels using the HitHunter cAMP assay kit (cat# 90-0075SM2), a homogenous, gain-of-signal competitive immune assay based on Enzyme Fragment Complementation (EFC) technology. In this system cellular cAMP competes with exogenous labeled cAMP (ED-cAMP) for binding to an anti-cAMP antibody. […] The luminescent signal is directly proportional to the amount of cellular cAMP.
Sequence of human GLP-1R (P43220 24-463): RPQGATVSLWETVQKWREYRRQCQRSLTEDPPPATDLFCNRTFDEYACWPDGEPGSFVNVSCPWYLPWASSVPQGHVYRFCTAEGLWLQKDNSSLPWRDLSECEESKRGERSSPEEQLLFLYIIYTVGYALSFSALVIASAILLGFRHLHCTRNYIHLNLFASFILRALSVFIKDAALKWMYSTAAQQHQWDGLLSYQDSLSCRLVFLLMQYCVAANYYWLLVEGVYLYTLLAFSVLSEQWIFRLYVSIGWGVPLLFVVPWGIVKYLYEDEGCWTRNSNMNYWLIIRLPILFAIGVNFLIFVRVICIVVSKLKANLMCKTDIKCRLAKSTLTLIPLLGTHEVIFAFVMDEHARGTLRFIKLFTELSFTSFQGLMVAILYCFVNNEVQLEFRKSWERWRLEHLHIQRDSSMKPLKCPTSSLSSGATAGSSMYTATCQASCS
For compound testing, cells were seeded in a total volume of 20 μL in white walled, 384-well microplates and incubated at 37° C. prior to compound testing. Prior to compound addition, cell culture media was removed by aspiration and replaced with 15 pt reagent buffer (2:1 HBSS/10 mM HEPES: cAMP XS+Ab reagent). Compounds were dissolved in DSMO and serially diluted (3-fold) prior to final dilution to 4X in assay buffer. Samples (5 μL) were added to cells and incubated at 37° C. for […] prior to 1 hour incubation with 20 pt cAMP XS+ED/CL lysis reagent and 3 hour incubation with 20 μL cAMP XS+EA reagent at room temperature. Microplates were read on a PerkinElmer Envision instrument. Compound activity was analyzed using CBIS data analysis suite (ChemInnovation). Percent activity was calculated based on duplicate assay runs and normalized to the positive control Exendin-4, a GLP-1R peptide agonist, using the following formula: […]
The effective compound concentration resulting in 50% response (EC50) was determined by non-linear regression analysis of dose-response curves.
One may read the EC50 as the concentration that produces a half-maximal response. On to `O=C(O)c1ccc2nc(CN3CCN(c4cccc(OCc5ccccc5)n4)C(=O)C3)n(C[C@@H]3CCO3)c2c1` [Compound 19, (S)-2-((4-(6-(benzyloxy)pyridin-2-yl)-3-oxopiperazin-1-yl)methyl)-1-(oxetan-2-ylmethyl)-1H-benzo[d]imidazole-6-carboxylic acid], for which the midpoint of the response, the EC50, lay at 41.2 nM.

On to `O=C(O)c1ccc2nc(CN3CCN(c4ccc5cnn(Cc6ccccc6)c5n4)CC3)n(C[C@@H]3CCO3)c2c1` [Compound 27, (S)-2-((4-(1-benzyl-1H-pyrazolo[3,4-b]pyridin-6-yl)piperazin-1-yl)methyl)-1-(oxetan-2-ylmethyl)-1H-benzo[d]imidazole-6-carboxylic acid], for which a half-maximal effect (EC50) was put at 232 nM.

The compound `O=C(O)c1ccc2nc(CN3CCN(c4cccc(OCc5cc6ccccc6o5)n4)CC3)n(C[C@@H]3CCO3)c2c1` [Compound 68, (S)-2-((4-(6-(benzofuran-2-ylmethoxy)pyridin-2-yl)piperazin-1-yl)methyl)-1-(oxetan-2-ylmethyl)-1H-benzo[d]imidazole-6-carboxylic acid] registered an EC50 of 2.03 nM.

For the compound `N#Cc1ccc2c(c1)CCCN2c1cccc(N2CCN(Cc3nc4ccc(C(=O)O)cc4n3C[C@@H]3CCO3)CC2)n1` [Compound 76, (S)-2-((4-(6-(6-cyano-3,4-dihydroquinolin-1(2H)-yl)pyridin-2-yl)piperazin-1-yl)methyl)-1-(oxetan-2-ylmethyl)-1H-benzo[d]imidazole-6-carboxylic acid], the 50% effective concentration (EC50) is more than 500 nM.

As for `CC(=O)N1CCC(COc2cccc(N3CCN(Cc4nc5ccc(C(=O)O)cc5n4C[C@@H]4CCO4)CC3)n2)CC1` [Compound 38, (S)-2-((4-(6-((1-acetylpiperidin-4-yl)methoxy)pyridin-2-yl)piperazin-1-yl)methyl)-1-(oxetan-2-ylmethyl)-1H-benzo[d]imidazole-6-carboxylic acid], the EC50 was more than 500 nM.

On to `CN(Cc1ccc(C#N)cc1)c1cccc(N2CCN(Cc3nc4ccc(C(=O)O)cc4n3C[C@@H]3CCO3)CC2)n1` [Compound 63, (S)-2-((4-(6-((4-cyanobenzyl)(methyl)amino)pyridin-2-yl)piperazin-1-yl)methyl)-1-(oxetan-2-ylmethyl)-1H-benzo[d]imidazole-6-carboxylic acid], for which a half-maximal response (EC50) required 54.5 nM.

`N#Cc1ccc(COc2cccc(C3CCN([C@@H]4CCCCn5c4nc4ccc(C(=O)O)cc45)CC3)n2)c(F)c1` [Compound 90, (R)-6-(4-(6-((4-cyano-2-fluorobenzyl)oxy)pyridin-2-yl)piperidin-1-yl)-7,8,9,10-tetrahydro-6H-benzo[4,5]imidazo[1,2-a]azepine-2-carboxylic acid] registered an EC50 of more than 500 nM.

Regarding `O=C(O)c1ccc2nc(CN3CCN(c4cccc(OC5(c6ccccc6)CCC5)n4)CC3)n(C[C@@H]3CCO3)c2c1` [Compound 51, (S)-1-(oxetan-2-ylmethyl)-2-((4-(6-(1-phenylcyclobutoxy)pyridin-2-yl)piperazin-1-yl)methyl)-1H-benzo[d]imidazole-6-carboxylic acid], a half-maximal effect (EC50) was put at 348 nM.

`N#Cc1ccc2c(c1)CN(c1cccc(N3CCN(Cc4nc5ccc(C(=O)O)cc5n4C[C@@H]4CCO4)CC3)n1)CC2` [Compound 77, (S)-2-((4-(6-(7-cyano-3,4-dihydroisoquinolin-2(1H)-yl)pyridin-2-yl)piperazin-1-yl)methyl)-1-(oxetan-2-ylmethyl)-1H-benzo[d]imidazole-6-carboxylic acid] showed an EC50 of 117 nM.

Still in this assay, the particulars now being: Table 3; cAMP Hunter CHO-K1 GLP1R Gs cells; percent activity normalized to Exendin-4.
With `N#Cc1ccc(N2CCc3ccc(N4CCN(Cc5nc6ccc(C(=O)O)cc6n5C[C@@H]5CCO5)CC4)nc3C2)c(F)c1` [Compound 144, (S)-2-((4-(7-(4-cyano-2-fluorophenyl)-5,6,7,8-tetrahydro-1,7-naphthyridin-2-yl)piperazin-1-yl)methyl)-1-(oxetan-2-ylmethyl)-1H-benzo[d]imidazole-6-carboxylic acid], the concentration giving a half-maximal response (EC50) was more than 500 nM.
